Data taken from US20200024278A1, “COMPOSITION COMPRISING ANTIBIOTIC COMPOUND AND AN HETEROCYCLIC COMPOUND AND THEIR USE IN PREVENTING OR TREATING BACTERIAL INFECTIONS” (MUTABILIS, priority 2016, published 2020).

Columns and labels:
Test in all cases: MIC, broth microdilution (CLSI), substance alone or ATB combined with compound at 4 or 8 μg/mL
[1] = tested on: ECO 190317; type: cell-based, E. coli; conditions: ECO 190317; for MIC ATB combined with Example: Example @4 μg/ml
How it was run: (§1)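 CLSI broth microdilution in cation-adjusted Mueller-Hinton broth, 5·10^5 CFU/mL log-phase inoculum, 16-20 h at 35 °C in ambient air. Fosfomycin assays supplemented with 25 μg/ml glucose-6-phosphate.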

[2] = tested on: ECO UFR39; type: cell-based, E. coli; conditions: ECO UFR39; for MIC ATB combined with Example: Example @4 μg/ml; for MIC ATB combined with Example compound: compound @4 μg/ml
How it was run: as §1

[3] = tested on: KPN 6299; type: cell-based, K. pneumoniae; conditions: for MIC ATB combined with Example: Example @4 μg/ml
How it was run: as §1

[4] = tested on: KPN BAA-1898; type: cell-based, K. pneumoniae; conditions: KPN BAA-1898; for MIC ATB combined with Example: Example @4 μg/ml
How it was run: as §1

[5] = tested on: KPN UFR42; type: cell-based, K. pneumoniae; conditions: KPN UFR42; for MIC ATB combined with Example: Example @4 μg/ml; for MIC ATB combined with Example compound: compound @4 μg/ml
How it was run: as §1

[6] = tested on: ECL P99; type: cell-based, E. cloacae; conditions: ECL P99; for MIC ATB combined with Example: Example @4 μg/ml
How it was run: as §1

[7] = tested on: PAE 105250; type: cell-based, P. aeruginosa; conditions: PAE 105250; for MIC ATB combined with Example: Example @4 μg/ml; for MIC ATB combined with Example compound: compound @4 μg/ml
How it was run: as §1

[8] = tested on: PAE UFR48; type: cell-based, P. aeruginosa; conditions: PAE UFR48; for MIC ATB combined with Example: Example @4 μg/ml; for MIC ATB combined with Example compound: compound @4 μg/ml
How it was run: as §1

[9] = tested on: PAE UFR90; type: cell-based, P. aeruginosa; conditions: PAE UFR90; for MIC ATB combined with Example: Example @4 μg/ml; for MIC ATB combined with Example compound: compound @4 μg/ml
How it was run: as §1

[10] = tested on: SAU 29213; type: cell-based, S. aureus; conditions: for MIC ATB combined with Example / MIC ATB combined with Example compound: SAU 29213; for MIC ATB combined with Example: Example @4 μg/ml; for MIC ATB combined with Example compound: compound @4 μg/ml
How it was run: as §1

[11] = tested on: SPN 49619; type: cell-based, S. pneumoniae; conditions: SPN 49619; for MIC ATB combined with Example: Example @4 μg/ml; for MIC ATB combined with Example compound: compound @4 μg/ml
How it was run: as §1

MIC ATB combined with Example ([1]; ATB ATM): <0.031 µg/mL
MIC ATB combined with Example ([1]; ATB FEP): <0.031 µg/mL
MIC ATB combined with Example ([1]; ATB FOS): <0.125 µg/mL
MIC ATB combined with Example ([1]; ATB MEM): <0.031 µg/mL
MIC ATB combined with Example ([1]; ATB PIP): <0.031 µg/mL
MIC ATB combined with Example compound ([1]; MIC of CIP, compound @4 μg/ml): <0.031 µg/mL
MIC ([1]; substance alone): 0.5 µg/mL
MIC ATB combined with Example ([2]; ATB ATM): <0.031 µg/mL
MIC ATB combined with Example ([2]; ATB FEP): <0.031 µg/mL
MIC ATB combined with Example ([2]; ATB FOS): <0.125 µg/mL
MIC ATB combined with Example ([2]; ATB MEM): <0.031 µg/mL
MIC ATB combined with Example ([2]; ATB PIP): <0.031 µg/mL
MIC ATB combined with Example compound ([2]; MIC of CIP): <0.031 µg/mL
MIC ATB combined with Example compound ([2]; MIC of CPO): <0.031 µg/mL
MIC ([2]; substance alone): 0.5 µg/mL
MIC ATB combined with Example ([3]; ATB ATM): <0.031 µg/mL
MIC ATB combined with Example ([3]; ATB FEP): <0.031 µg/mL
MIC ATB combined with Example ([3]; ATB FOS): <0.125 µg/mL
MIC ATB combined with Example ([3]; ATB MEM): <0.031 µg/mL
MIC ATB combined with Example ([3]; ATB PIP): <0.031 µg/mL
MIC ATB combined with Example compound ([3]; MIC of CIP, compound @4 μg/ml): <0.031 µg/mL
MIC ATB combined with Example ([4]; ATB ATM): <0.031 µg/mL
MIC ATB combined with Example ([4]; ATB FEP): <0.031 µg/mL
MIC ATB combined with Example ([4]; ATB FOS): <0.125 µg/mL
MIC ATB combined with Example ([4]; ATB MEM): <0.031 µg/mL
MIC ATB combined with Example ([4]; ATB PIP): <0.031 µg/mL
MIC ATB combined with Example compound ([4]; MIC of CIP, compound @4 μg/ml): <0.031 µg/mL
MIC ([4]; substance alone): 1 µg/mL
MIC ATB combined with Example ([5]; ATB ATM): <0.031 µg/mL
MIC ATB combined with Example ([5]; ATB FEP): <0.031 µg/mL
MIC ATB combined with Example ([5]; ATB FOS): <0.125 µg/mL
MIC ATB combined with Example ([5]; ATB MEM): <0.031 µg/mL
MIC ATB combined with Example ([5]; ATB PIP): <0.031 µg/mL
MIC ATB combined with Example compound ([5]; MIC of CIP): <0.031 µg/mL
MIC ATB combined with Example compound ([5]; MIC of CPO): <0.031 µg/mL
MIC ([5]; substance alone): 2 µg/mL
MIC ATB combined with Example ([6]; ATB ATM): <0.031 µg/mL
MIC ATB combined with Example ([6]; ATB FEP): <0.031 µg/mL
MIC ATB combined with Example ([6]; ATB FOS): <0.125 µg/mL
MIC ATB combined with Example ([6]; ATB MEM): <0.031 µg/mL
MIC ATB combined with Example ([6]; ATB PIP): <0.031 µg/mL
MIC ATB combined with Example compound ([6]; MIC of CIP, compound @4 μg/ml): <=0.031 μg/mL
MIC ([6]; substance alone): 1 µg/mL
MIC ATB combined with Example ([7]; ATB ATM): 8 µg/mL
MIC ATB combined with Example ([7]; ATB FEP): 4 µg/mL
MIC ATB combined with Example ([7]; ATB FOS): >128 µg/mL
MIC ATB combined with Example ([7]; ATB MEM): 2 µg/mL
MIC ATB combined with Example ([7]; ATB PIP): >32 µg/mL
MIC ATB combined with Example compound ([7]; MIC of CIP): 0.125 µg/mL
MIC ATB combined with Example compound ([7]; MIC of CPO): 8 µg/mL
MIC ([7]; substance alone): 32 µg/mL
MIC ATB combined with Example ([8]; ATB ATM): 8 µg/mL
MIC ATB combined with Example ([8]; ATB FEP): 16 µg/mL
MIC ATB combined with Example ([8]; ATB FOS): 32 µg/mL
MIC ATB combined with Example ([8]; ATB MEM): 0.25 µg/mL
MIC ATB combined with Example ([8]; ATB PIP): 16 µg/mL
MIC ATB combined with Example compound ([8]; MIC of CIP): 4 µg/mL
MIC ATB combined with Example compound ([8]; MIC of CPO): >32 µg/mL
MIC ([8]; substance alone): 32 µg/mL
MIC ATB combined with Example ([9]; ATB ATM): 16 µg/mL
MIC ATB combined with Example ([9]; ATB FEP): 4 µg/mL
MIC ATB combined with Example ([9]; ATB FOS): 8 µg/mL
MIC ATB combined with Example ([9]; ATB MEM): 1 µg/mL
MIC ATB combined with Example ([9]; ATB PIP): >32 µg/mL
MIC ATB combined with Example compound ([9]; MIC of CIP): 1 µg/mL
MIC ATB combined with Example compound ([9]; MIC of CPO): 8 µg/mL
MIC ([9]; substance alone): >32 µg/mL
MIC ATB combined with Example ([10]; ATB ATM): <0.031 µg/mL
MIC ATB combined with Example ([10]; ATB FEP): <0.031 µg/mL
MIC ATB combined with Example ([10]; ATB FOS): <=0.125 μg/mL
MIC ATB combined with Example ([10]; ATB MEM): <=0.031 μg/mL
MIC ATB combined with Example ([10]; ATB PIP): <0.031 µg/mL
MIC ATB combined with Example compound ([10]; MIC of CIP): <0.031 µg/mL
MIC ATB combined with Example compound ([10]; MIC of CLI): <0.0010 µg/mL
MIC ATB combined with Example compound ([10]; MIC of CPO): <0.031 µg/mL
MIC ATB combined with Example compound ([10]; MIC of DAP): <0.0020 µg/mL
MIC ATB combined with Example compound ([10]; MIC of ERY): <0.0020 µg/mL
MIC ATB combined with Example compound ([10]; MIC of LZD): <0.0078 µg/mL
MIC ATB combined with Example compound ([10]; MIC of RIF): <0.00012 µg/mL
MIC ATB combined with Example compound ([10]; MIC of SYN): <0.0020 µg/mL
MIC ATB combined with Example compound ([10]; MIC of VAN): <0.0039 µg/mL
MIC ([10]; substance alone, SAU 29213 (MSSA 29213)): 4 µg/mL
MIC ATB combined with Example ([11]; ATB ATM): >32 µg/mL
MIC ATB combined with Example ([11]; ATB FEP): <=0.031 μg/mL
MIC ATB combined with Example ([11]; ATB FOS): 8 µg/mL
MIC ATB combined with Example ([11]; ATB MEM): <=0.031 μg/mL
MIC ATB combined with Example ([11]; ATB PIP): 0.5 µg/mL
MIC ATB combined with Example compound ([11]; MIC of CIP): <=0.031 μg/mL
MIC ATB combined with Example compound ([11]; MIC of CLI): <0.0010 µg/mL
MIC ATB combined with Example compound ([11]; MIC of CPO): <=0.031 μg/mL
MIC ATB combined with Example compound ([11]; MIC of DAP): 0.031 µg/mL
MIC ATB combined with Example compound ([11]; MIC of ERY): <0.0020 µg/mL
MIC ATB combined with Example compound ([11]; MIC of LZD): 0.125 µg/mL
MIC ATB combined with Example compound ([11]; MIC of RIF): 0.00049 µg/mL
MIC ATB combined with Example compound ([11]; MIC of SYN): 0.5 µg/mL
MIC ATB combined with Example compound ([11]; MIC of VAN): 0.0078 µg/mL
MIC ([11]; substance alone): 4 µg/mL
SMILES: O=C1N2CC(n3ccnn3)=C[C@H](C2)N1OS(=O)(=O)[O-].[Na+] [Example 16, sodium [(5R)-7-oxo-3-(triazol-1-yl)-1,6-diazabicyclo[3.2.1]oct-3-en-6-yl] sulfate]
